The values that follow come from publication PMC7281280, “Is the Way to Fight Cancer Paved with Gold? Metal-Based Carbene Complexes with Multiple and Fascinating Biological Features” (Pharmaceuticals, 2020).

Molecules are shown by their SMILES.

The subject of one experiment is tubulin. The experiment is described as follows: In vitro tubulin-polymerization assay (turbidity at 350 nm). As to conditions: 10 µM. The format is biochemical. As to the method: Tubulin-polymerization inihibition was measured using in vitro Tubulin-Polymerization Assay Kit purchased fromEMD Millipore Corporation. Polymerization reactions occur in 70 µL final volumes, of which 60 µL is the 60 µM tubulin in 1 × PB-GTP and 10 µL is the test substance dissolved in 1 × PB-GTP. […] These reactives were combined in 96-well plate on ice. After the plate was transferred into the spectrophotometer pre-warmed at 37 °C and the turbidity variation was measured every 30 s at 350 nm for 90 min. The plate was shaked for 10 s before each measurement. Turbidity (absorbance) readings were used to calculate the extent of polymerization [% inhibition = (1−A350 sample/A350 control) × 100].
Figure 4 Tubulin-polymerization assay. […] Two positive control molecules, Paclitaxel and Vinblastine, were used as tubulin-stabilizing and tubulin-destabilizing agents, respectively. DMSO was used as a negative control. Assembly of tubulin into microtubules was determined by measuring the turbidity at 350 nm for 3600 s at 37 °C. All the compounds were used at a concentration of 10 μM.

Experiment [1] addresses T1, human topoisomerase I (hTopo I) (Homo sapiens, UniProt P11387).
T1 construct: purchased TopoGEN, Port Orange, FL, USA
T1 sequence (P11387 1-765): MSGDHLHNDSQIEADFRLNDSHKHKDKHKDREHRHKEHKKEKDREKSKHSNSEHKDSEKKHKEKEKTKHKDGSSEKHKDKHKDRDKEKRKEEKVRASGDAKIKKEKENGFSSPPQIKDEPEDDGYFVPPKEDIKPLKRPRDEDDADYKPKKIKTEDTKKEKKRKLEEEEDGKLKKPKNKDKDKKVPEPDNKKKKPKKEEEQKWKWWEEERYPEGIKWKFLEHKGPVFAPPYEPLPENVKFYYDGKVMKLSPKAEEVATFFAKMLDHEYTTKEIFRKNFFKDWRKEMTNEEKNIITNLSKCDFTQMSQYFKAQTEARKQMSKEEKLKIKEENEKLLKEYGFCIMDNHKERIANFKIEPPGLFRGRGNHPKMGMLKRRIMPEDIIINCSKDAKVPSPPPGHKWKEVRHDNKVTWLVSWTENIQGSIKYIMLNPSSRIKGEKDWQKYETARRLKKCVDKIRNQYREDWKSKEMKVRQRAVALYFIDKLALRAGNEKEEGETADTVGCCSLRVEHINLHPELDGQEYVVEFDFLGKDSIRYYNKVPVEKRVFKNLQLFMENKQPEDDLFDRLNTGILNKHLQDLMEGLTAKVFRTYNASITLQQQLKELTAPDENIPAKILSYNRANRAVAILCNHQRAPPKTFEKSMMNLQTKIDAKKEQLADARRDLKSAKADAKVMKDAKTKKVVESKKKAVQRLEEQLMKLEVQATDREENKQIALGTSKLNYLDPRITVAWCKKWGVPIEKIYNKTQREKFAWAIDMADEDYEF
Put plainly: Human topoisomerase I relaxation assay. The format is biochemical. As to conditions: 1 μM. As to the method:
Topoisomerases are essential enzymes involved in DNA metabolism, because of their ability to cause temporary DNA strand breakage, and tightly involved, if overexpressed, in cancer development.
hTopo I relaxation assays have been performed in a final volume of […], as reported by Iacopetta et al., incubating […] of supercoiled plasmid pHOT1 in Tris-EDTA (TE) buffer (TopoGEN, Port Orange, FL, USA) with tested compounds and recombinant hTopo I (2 units) (TopoGEN, Port Orange, FL, USA) for 1h at 37 °C. The obtained solution has been loaded in a 1% agarose gel containing 1× Tris-acetate-EDTA (TAE) buffer without ethidium bromide (EB). Agarose gel has been stained using 1× TAE buffer with EB ([…]) for 30 min and after washed with distilled water for 15 min. At the end, it has been visualized by using a ultraviolet (UV) transilluminator. The experiment was performed in triplicate.
Figure 7 hTopoI assay.

Experiment [2] concerns MDA-MB-231 cells. The experiment is described as follows: Detection of intracellular ROS (DCF-DA). The format is cell-based, human. As to the method: We used 2,7-dichlorofluorescin diacetate (DCF-DA) as a fluorometric probe for ROS detection and their production was examined under an inverted fluorescence microscope, as already reported.
Cells were grown on glass coverslips until the treatment with compound or menadione (used as positive control) (Sigma–Aldrich, Milan, Italy). Then, cells were incubated with 10 μM 2′-7′-Dichlorofluorescein diacetate (Sigma–Aldrich, Milan, Italy) for 40 min at 37 °C in a 5% CO2 incubator, as previously described. Then, DAPI (0.2 μg mL^−1) counterstain was performed for 10 min at room temperature, in the dark. Cells were then washed three times with cold PBS, adding one drop of mounting solution, then they were observed and imaged under a fluorescence microscope (Leica DM6000; 20× magnification) with excitation/emission wavelength maxima of 490 nm/515 nm (DCF) or 350 nm/460 nm (DAPI). Images are representative of three independent experiments.
Images were acquired at 20× magnification. […] Fields are representative of three separate experiments.

Experiment [3] has as its system MDA-MB-231 cells. The settings on record: at IC50 value, 24 h. Here is the method: At this purpose, we performed immunostaining studies using the mitochondrial probe MitoTracker Deep Red FM and an anti-cytochrome c antibody, to follow the possible release of this protein from the mitochondrial district to the cytoplasm.
The same protocol was performed for mitochondrial staining. […] The primary antibody used in this case was the mouse anti-cytochrome c (556 433), purchased from BD Biosciences. The secondary antibodies used was Alexa Fluor® 488 conjugate goat-anti-mouse (1:500 dilution), purchased from Thermo Fisher Scientific, Waltham, MA, USA.
Images were acquired at 63x magnification and representative fields are shown.

A further experiment relates to caspase-9. The settings on record: 5 μM, 24 h, MDA-MB-231 cells.

Turning to `C[n+]1c(Cl)c(Cl)n(CC(O)c2ccccc2)[c]1[Au-][c]1n(CC(O)c2ccccc2)c(Cl)c(Cl)[n+]1C.[Cl][Au-][Cl]` (racemic) [AuL7, bis-[4,5-dichloro-(N-methyl-N’(2-hydroxy-2-phenyl)ethyl-imidazole-2-ylidene)gold(I)]^+[dichloro-gold]^−], the “effect on tubulin-polymerization reaction” value with tubulin was “tubulin-polymerization inhibitor”. Besides, in the experiment on tubulin (37 °C, vehicle (DMSO) about 0.43), the “final optical density value at 350 nm (OD350)” value is given as “about 0.25”. In addition, the “inhibition of hTopo I supercoil relaxing activity” value in experiment [1] was “totally inhibition”. The “ROS production, fold lesser compared to Men-treated cells” value with MDA-MB-231 cells [2] (DCF fluorescence quantified by ImageJ) worked out at 1.5 fold. In addition, the “ROS production (DCF green fluorescence)” value with MDA-MB-231 cells [2] (fluorescence microscopy) is “significantly higher with respect to the vehicle-treated cells”. Besides, in the experiment with MDA-MB-231 cells [3], the cytochrome c localization entry is “cytochrome c release and diffusion into the cytoplasmic compartment”; the “mitochondrial integrity (MitoTracker Deep Red FM)” value was “loss of mitochondrial structural integrity”. Further, in the experiment with caspase-9, the caspase-9 activity entry is reported as “discrete increase”.
